Among the test systems are K-562 leukemia; MALME-3M melanoma; PC-3 prostate; SN12C renal; MDA-MB-435; OVCAR-5 ovarian; SF-539 CNS; NCI/ADR-RES ovarian; HOP-62 NSCLC; SK-OV-3 ovarian.
Test in all cases: NCI tumour cell line growth inhibition, 48 h

Molecules are shown by their SMILES.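 96-well plates; 48 h exposure; 5 concentrations. Endpoints by linear interpolation between flanking doses. Not reached: highest tested concentration assigned. Abbreviation: GI50, concentration required for 50% inhibition of growth. Definition used: TGI = concentration required for complete inhibition of growth.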

Turning to `C[n+]1c(/C=C/c2c(O)ccc3ccccc23)ccc2ccccc21`, the GI50 in the assay on K-562 leukemia was 2.22 µM; with MALME-3M melanoma, 5.3 µM; with PC-3 prostate it was 4 µM; with SN12C renal it was 6.08 µM; in the assay on MDA-MB-435, 5.84 µM; in the assay on OVCAR-5 ovarian, 7.19 µM. The GI50 with SF-539 CNS was 6.4 µM; with NCI/ADR-RES ovarian, 5.64 µM; in the assay on HOP-62 NSCLC, 6.25 µM. The TGI worked out at 13.4 µM with K-562 leukemia; 12.7 µM with MALME-3M melanoma; 11.7 µM in the assay on PC-3 prostate; 13.6 µM in the assay with SN12C renal; 12.6 µM in the assay with MDA-MB-435; 15.2 µM in the assay with OVCAR-5 ovarian. For the same compound, the TGI in the assay with SF-539 CNS is 13.9 µM; in the assay with NCI/ADR-RES ovarian it was 14.5 µM; in the assay with HOP-62 NSCLC, 13.8 µM.

For the compound `On1c(-c2ccccc2)c(-c2ccccc2N2CCCC2)c2ccccc21`, the TGI with SK-OV-3 ovarian, in the assay with K-562 leukemia, in the assay on MALME-3M melanoma, in the assay with SN12C renal, in the assay on OVCAR-5 ovarian and in the assay with SF-539 CNS was over 100 µM each time. In addition, the TGI with HOP-62 NSCLC was over 100 µM.

For `CCCCCCCCCCCC[S+](C)C`, the TGI came to 21.7 µM in the assay with SK-OV-3 ovarian; 49.4 µM in the assay on K-562 leukemia; 22.4 µM with MALME-3M melanoma; 9.92 µM in the assay with PC-3 prostate; 15.3 µM in the assay on SN12C renal; 22.5 µM in the assay with OVCAR-5 ovarian. Also, the TGI in the assay on SF-539 CNS is 19.4 µM; in the assay on NCI/ADR-RES ovarian, over 91.9 µM; with HOP-62 NSCLC, 1.52 µM.

For the compound `COc1ccc(C2c3cn[nH]c3CC3CCCCC32)cc1` (stereo unspecified), the TGI in the assay on K-562 leukemia was determined as 98.6 µM; in the assay with MALME-3M melanoma, 38.4 µM; with PC-3 prostate, 29.8 µM; in the assay on SN12C renal it was 33.2 µM; in the assay on MDA-MB-435, 40.4 µM; with OVCAR-5 ovarian, 34.8 µM. In addition, the TGI in the assay on HOP-62 NSCLC was 36.8 µM.

As for `C=C(C(=O)OCC)C(=O)OCC`, the TGI in the assay on SK-OV-3 ovarian, in the assay with K-562 leukemia, in the assay with MALME-3M melanoma, in the assay on PC-3 prostate, in the assay with SN12C renal and with MDA-MB-435 was over 100 µM each time. The TGI with OVCAR-5 ovarian, with SF-539 CNS and in the assay on HOP-62 NSCLC was over 100 µM each time.

As to `Cc1nc(C)c(C(=O)NNC(=O)C[N+](C)(C)C)cc1C(=O)NNC(=O)C[N+](C)(C)C`, the TGI with SK-OV-3 ovarian, in the assay on SN12C renal, in the assay on MDA-MB-435, with OVCAR-5 ovarian, in the assay on SF-539 CNS and in the assay on NCI/ADR-RES ovarian was over 100 µM in each case. The compound further yielded a TGI with HOP-62 NSCLC of over 100 µM.

In the case of `CCCCCCCCCCCCCCCCNc1cccc2ccccc12`, the TGI in the assay with SK-OV-3 ovarian, in the assay on K-562 leukemia, in the assay on MALME-3M melanoma, with SN12C renal, in the assay with SF-539 CNS and with HOP-62 NSCLC was over 100 µM each time.

Turning to `O=C1C=C/C(=N\N=C(c2ccccc2)c2ccccc2)O1`, the TGI with SK-OV-3 ovarian, in the assay on K-562 leukemia, in the assay on MALME-3M melanoma, in the assay on PC-3 prostate, in the assay with SN12C renal and in the assay on MDA-MB-435 was over 10 µM in each case. The compound further registered a TGI in the assay with HOP-62 NSCLC of over 10 µM.

Consider `O=C1NC(N2CCOCC2)=N/C1=C\c1ccco1`, for which the TGI in the assay on SK-OV-3 ovarian, in the assay with PC-3 prostate, in the assay on SN12C renal, in the assay with MDA-MB-435, in the assay with OVCAR-5 ovarian and in the assay with SF-539 CNS was over 100 µM throughout. Moreover, the TGI with NCI/ADR-RES ovarian and in the assay with HOP-62 NSCLC was over 100 µM in each case.

Regarding `Nc1ccc(N=Nc2c(S(=O)(=O)O)cc3ccccc3c2S(=O)(=O)O)cc1`, the TGI in the assay on K-562 leukemia, in the assay on MALME-3M melanoma, with PC-3 prostate, in the assay on SN12C renal, with MDA-MB-435 and in the assay on OVCAR-5 ovarian was over 100 µM each time. Also, the TGI in the assay with NCI/ADR-RES ovarian and in the assay with HOP-62 NSCLC was over 100 µM in each case.

On to `CC(=O)NC1C(OCc2ccccc2)OC(CO)C(O)C1OCC(=O)N[C@@H](C)C(=O)N[C@H](CCC(=O)NCCCNc1c2ccccc2nc2cccc([N+](=O)[O-])c12)C(N)=O` (stereo partly specified), for which the TGI is 0.99 µM with SK-OV-3 ovarian; over 39.8 µM in the assay on K-562 leukemia; 0.129 µM with MALME-3M melanoma; 0.493 µM in the assay with PC-3 prostate; 0.327 µM in the assay on SN12C renal; 0.132 µM in the assay on MDA-MB-435. For the same compound, the TGI with OVCAR-5 ovarian was found to be 5.8 µM; in the assay with SF-539 CNS, 0.279 µM; in the assay on HOP-62 NSCLC, 0.576 µM.

In the case of `CCOC(=O)C1S/C(=N\C(=N)N[N+](=O)[O-])N=C1C` (stereo unspecified), the TGI with K-562 leukemia, in the assay on MALME-3M melanoma, in the assay on SN12C renal, in the assay on OVCAR-5 ovarian, in the assay on SF-539 CNS and in the assay with HOP-62 NSCLC was over 100 µM throughout.

For the compound `OC[C@H]1O[C@@H]2O[C@@](COCc3ccccc3)([C@H](OCc3ccccc3)[C@H]2O)[C@@H]1OCc1ccccc1`, the TGI in the assay with SK-OV-3 ovarian was 27.9 µM; with K-562 leukemia, 25.2 µM; with PC-3 prostate, 28 µM; in the assay with SN12C renal it was 29.2 µM; in the assay with MDA-MB-435, 31.8 µM; with OVCAR-5 ovarian it was 31.3 µM. Besides, the TGI turned out to be 32.9 µM in the assay with SF-539 CNS, 36.1 µM in the assay with NCI/ADR-RES ovarian and 32.6 µM in the assay with HOP-62 NSCLC.

With `C[N+](C)([O-])CCOc1cc2c(c3ccccc13)-c1ccccc1C2=O`, the TGI in the assay on SK-OV-3 ovarian is over 100 µM; in the assay on K-562 leukemia, over 95.2 µM; in the assay on MALME-3M melanoma it was 28.9 µM; with SN12C renal, 62.3 µM; in the assay on OVCAR-5 ovarian, 59.2 µM; in the assay with SF-539 CNS it was 38.4 µM. In addition, the TGI in the assay on NCI/ADR-RES ovarian is over 100 µM; with HOP-62 NSCLC, 69.6 µM.

For the compound `COc1cc2c(cc1OC)C(C(c1ccccc1)c1ccccc1)N(C)CC2` (stereo unspecified), the TGI is over 100 µM with SK-OV-3 ovarian; over 100 µM in the assay on K-562 leukemia; 56.2 µM in the assay on MALME-3M melanoma; over 100 µM in the assay with SN12C renal; over 100 µM with OVCAR-5 ovarian; over 100 µM in the assay on SF-539 CNS. Moreover, the TGI in the assay on NCI/ADR-RES ovarian and in the assay with HOP-62 NSCLC was over 100 µM each time.

The record behind these values is PubChem BioAssay (NCI).
